Like-named read-outs stand apart in the source and are kept apart here.
Tested on: HCV 1b genotype
Experiment: HCV Replicon assay (HCV-neo replicon cells, wild-type)
Assay type: cell-based
Description: An HCV Replicon assay was utilized in the present disclosure, and was prepared, conducted and validated as described in commonly owned PCT/US2006/022197 and in O′Boyle et. al. Antimicrob Agents Chemother, 2005 April; 49(4):1346-53. Assay methods incorporating luciferase reporters have also been used as described (Apath.com).
HCV-neo replicon cells and replicon cells containing mutations in the NS5A region were used to test the currently described family of compounds. The compounds were determined to have more than 10-fold less inhibitory activity on cells containing mutations than wild-type cells. Thus, the compounds of the present disclosure can be effective in inhibiting the function of the HCV NS5A protein and are understood to be as effective in combinations as previously described in application PCT/US2006/022197 and commonly owned WO/04014852. Further, the compounds of the present disclosure can be effective against the HCV 1b genotype. It should also be understood that the compounds of the present disclosure can inhibit multiple genotypes of HCV. […] In one embodiment, compounds of the present disclosure are inhibitory versus 1a, 1b, 2a, 2b, 3a, 4a, and 5a genotypes.

[1] = Hepatitis C virus, HCV 1b genotype replicon, range class A-D, read-out: 1b EC50 (in μM or range)
[2] = Hepatitis C virus, HCV 1b genotype replicon, read-out: 1b EC50 (in μM or range)
[3] = HCV 1b genotype replicon, range class A-D, read-out: 1b EC50 (in μM or range)

| SMILES | EC50 [1] | other results |
| --- | --- | --- |
| C[C@@H](C(=O)N1CCC[C@H]1C(=O)Nc1ccc(C#Cc2ccc(NC(=O)[C@@H]3CCCN3C(=O)[C@H](C)c3ccccc3)cc2)cc1)c1ccccc1 [VN9, (2S,2′S)-N,N′-(1,2-ethynediyldi-4,1-phenylene)bis(1-((2R)-2-phenylpropanoyl)-2-pyrrolidinecarboxamide)] | < 4.57 nM |  |
| CCC(=O)N[C@@H](C(=O)N1CCC[C@H]1C(=O)Nc1ccc(C#Cc2ccc(NC(=O)[C@@H]3CCCN3C(=O)[C@H](NC(=O)CC)c3ccccc3)cc2)cc1)c1ccccc1 [VN24, (2S,2′S)-N,N′-(1,2-ethynediyldi-4,1-phenylene)bis(1-((2R)-2-phenyl-2-(propionylamino)acetyl)-2-pyrrolidinecarboxamide)] |  | EC50 [2]: > 10000 nM |
| COc1cccc2c(C(=O)N3CCC[C@H]3C(=O)Nc3ccc(C#Cc4ccc(NC(=O)[C@@H]5CCCN5C(=O)c5nc(Cl)cc6c(OC)cccc56)cc4)cc3)nc(Cl)cc12 [Example D33, (2S,2′S)-N,N′-(1,2-ethynediyldi-4,1-phenylene)bis(1-((3-chloro-5-methoxy-1-isoquinolinyl)carbonyl)-2-pyrrolidinecarboxamide)] | 4.57 to 99 nM |  |
| CCOc1cccc2c(C(=O)N3CCC[C@H]3C(=O)Nc3ccc(C#Cc4ccc(NC(=O)[C@@H]5CCCN5C(=O)c5nc(Cl)cc6c(OCC)cccc56)cc4)cc3)nc(Cl)cc12 [Example D34, (2S,2′S)-N,N′-(1,2-ethynediyldi-4,1-phenylene)bis(1-((3-chloro-5-ethoxy-1-isoquinolinyl)carbonyl)-2-pyrrolidinecarboxamide)] | 4.57 to 99 nM |  |
| O=C(Nc1cncc(C#Cc2cncc(NC(=O)[C@@H]3CCCN3C(=O)Cc3ccccc3)c2)c1)[C@@H]1CCCN1C(=O)Cc1ccccc1 [YQ2, (2S,2′S)-N,N′-(1,2-ethynediyldi-5,3-pyridinediyl)bis(1-(phenylacetyl)-2-pyrrolidinecarboxamide)] |  | EC50 (Hepatitis C virus, read-out: 1b EC50 (in μM or range), HCV 1b genotype replicon): 523000 nM |
| O=CN[C@@H](C(=O)N1CCC[C@H]1C(=O)Nc1ccc(C#Cc2ccc(NC(=O)[C@@H]3CCCN3C(=O)[C@H](NC=O)c3ccccc3)cc2)cc1)c1ccccc1 [VN11, (2S,2′S)-N,N′-(1,2-ethynediyldi-4,1-phenylene)bis(1-((2R)-2-formamido-2-phenylacetyl)-2-pyrrolidinecarboxamide)] |  | EC50 [2]: 0.01 nM |
| CN(C)C(C)(C(=O)N1CCC[C@H]1C(=O)Nc1ccc(C#Cc2ccc(NC(=O)[C@@H]3CCCN3C(=O)C(C)(c3ccccc3)N(C)C)cc2)cc1)c1ccccc1 (stereo partly drawn) [VN38, (2S,2′S)-N,N′-(1,2-ethynediyldi-4,1-phenylene)bis(1-(2-(dimethylamino)-2-phenylpropanoyl)-2-pyrrolidinecarboxamide)] |  | EC50 [3]: < 4.57 nM |
| O=C(Nc1ccc(C#Cc2ccc(NC(=O)[C@@H]3CCCN3C(=O)[C@H]3CCCO3)cc2)cc1)C1CC1 [Example D6, N-(4-((4-((cyclopropylcarbonyl)amino)phenyl)ethynyl)phenyl)-1-((2R)-tetrahydro-2-furanylcarbonyl)-L-prolinamide] | 100 to 999 nM |  |
| O=C(Nc1ccc(C#Cc2ccc(NC(=O)C3CCN(C(=O)OCc4ccccc4)C3)cc2)cc1)C1CCN(C(=O)OCc2ccccc2)C1 (stereo not shown) [Example D5, Dibenzyl3,3′-(1,2-ethynediylbis(4,1-phenylenecarbamoyl))di(1-pyrrolidinecarboxylate)] | 1000 to 10000 nM |  |
| O=C(Nc1ccc(C#Cc2ccc(NC(=O)[C@@H]3CCCN3C(=O)C(c3ccccc3)N3CC[C@H](O)C3)cc2)cc1)[C@@H]1CCCN1C(=O)C(c1ccccc1)N1CC[C@H](O)C1 (stereo partly drawn) [VN51, (2S,2′S)-N,N′-(1,2-ethynediyldi-4,1-phenylene)bis(1-(((3S)-3-hydroxy-1-pyrrolidinyl)(phenyl)acetyl)-2-pyrrolidinecarboxamide)] | 4.57 to 99 nM |  |
| CC(=O)N1CCC[C@H]1C(=O)Nc1ccc(C#Cc2ccc(NC(=O)[C@@H]3CCCN3C(=O)Cc3cccnc3)nc2)cc1 [Example D57, (2S)-1-Acetyl-N-(4-((6-((((2S)-1-(3-pyridinylacetyl)-2-pyrrolidinyl)carbonyl)amino)-3-pyridinyl)ethynyl)phenyl)-2-pyrrolidinecarboxamide] | 1000 to 10000 nM |  |
| CC(=O)N[C@@H](C)C(=O)N1CCC[C@H]1C(=O)Nc1ccc(C#Cc2ccc(NC(=O)[C@@H]3CCCN3C(=O)[C@H](C)NC(C)=O)cc2)cc1 [VN15, (2S,2′S)-N,N′-(1,2-ethynediyldi-4,1-phenylene)bis(1-((2S)-2-acetamidopropanoyl)-2-pyrrolidinecarboxamide)] | 100 to 999 nM |  |
| Cn1c(C(=O)N2CCC[C@H]2C(=O)Nc2ccc(C#Cc3ccc(NC(=O)[C@@H]4CCCN4C(=O)c4cc5ccccc5n4C)cc3)cc2)cc2ccccc21 [Example D30, (2S,2′S)-N,N′-(1,2-ethynediyldi-4,1-phenylene)bis(1-((1-methyl-1H-indol-2-yl)carbonyl)-2-pyrrolidinecarboxamide)] |  | EC50 [2]: 1210 nM |
| CCc1scnc1C(=O)N1CCC[C@H]1C(=O)Nc1ccc(C#Cc2ccc(NC(=O)[C@@H]3CCCN3C(=O)c3ncsc3CC)cc2)cc1 [Example D36.2, (2S,2′S)-N,N′-(4,4′-(ethyne-1,2-diyl)bis(4,1-phenylene))bis(1-(5-ethylthiazole-4-carbonyl)pyrrolidine-2-carboxamide)] |  | EC50 [3]: 4.57 to 99 nM |
| CC(=O)N1CCC[C@H]1C(=O)Nc1ccc(C#Cc2ccc(NC(=O)[C@@H]3CCCN3C(=O)c3cccc4ccccc34)nc2)cc1 [Example D59, (2S)-1-Acetyl-N-(4-((6-((((2S)-1-(1-naphthoyl)-2-pyrrolidinyl)carbonyl)amino)-3-pyridinyl)ethynyl)phenyl)-2-pyrrolidinecarboxamide] |  | EC50 [2]: 1480 nM |
| CC(=O)N1CCC[C@H]1C(=O)Nc1ccc(C#Cc2ccc(NC(=O)[C@@H]3CCCN3C(=O)Cc3ccccc3)nc2)cc1 [Example D55, (2S)-1-Acetyl-N-(4-((6-((((2S)-1-(phenylacetyl)-2-pyrrolidinyl)carbonyl)amino)-3-pyridinyl)ethynyl)phenyl)-2-pyrrolidinecarboxamide] | 100 to 999 nM |  |
| CC(=O)N[C@H](C)C(=O)N1CCC[C@H]1C(=O)Nc1ccc(C#Cc2ccc(NC(=O)[C@@H]3CCCN3C(=O)[C@@H](C)NC(C)=O)cc2)cc1 [VN14, (2S,2′S)-N,N′-(1,2-ethynediyldi-4,1-phenylene)bis(1-((2R)-2-acetamidopropanoyl)-2-pyrrolidinecarboxamide)] | 4.57 to 99 nM |  |
| O=C(Nc1ccc(C#Cc2ccc(NC(=O)[C@@H]3CCCN3C(=O)C(c3ccccc3)N3CC[C@@H](O)C3)cc2)cc1)[C@@H]1CCCN1C(=O)C(c1ccccc1)N1CC[C@@H](O)C1 (stereo partly drawn) [VN53, (2S,2′S)-N,N′-(1,2-ethynediyldi-4,1-phenylene)bis(1-(((3R)-3-hydroxy-1-pyrrolidinyl)(phenyl)acetyl)-2-pyrrolidinecarboxamide)] |  | EC50 [3]: 4.57 to 99 nM |
| CN(C)C1(C(=O)N2CCC[C@H]2C(=O)Nc2ccc(C#Cc3ccc(NC(=O)[C@@H]4CCCN4C(=O)C4(N(C)C)Cc5ccccc5C4)cc3)cc2)Cc2ccccc2C1 [VN16, (2S,2′S)-N,N′-(1,2-ethynediyldi-4,1-phenylene)bis(1-((2-(dimethylamino)-2,3-dihydro-1H-inden-2-yl)carbonyl)-2-pyrrolidinecarboxamide)] | 4.57 to 99 nM |  |
| CC(C)C(=O)N[C@@H](C(=O)N1CCC[C@H]1C(=O)Nc1ccc(C#Cc2ccc(NC(=O)[C@@H]3CCCN3C(=O)[C@H](NC(=O)C(C)C)c3ccccc3)cc2)cc1)c1ccccc1 [VN25, (2S,2′S)-N,N′-(1,2-ethynediyldi-4,1-phenylene)bis(1-((2R)-2-(isobutyrylamino)-2-phenylacetyl)-2-pyrrolidinecarboxamide)] | < 4.57 nM |  |
| CCOC(=O)N[C@@H](C(=O)N1CCC[C@H]1C(=O)Nc1ccc(C#Cc2ccc(NC(=O)[C@@H]3CCCN3C(=O)[C@H](NC(=O)OCC)c3ccccc3)cc2)cc1)c1ccccc1 [VN54, Diethyl (1,2-ethynediylbis(4,1-phenylenecarbamoyl(2S)-2,1-pyrrolidinediyl((1R)-2-oxo-1-phenyl-2,1-ethanediyl)))biscarbamate] |  | EC50 [2]: 0.018 nM |
| O=C(Nc1ccc(C#Cc2ccc(NC(=O)[C@@H]3CCCN3C(=O)[C@@H](O)c3ccccc3)cc2)cc1)[C@@H]1CCCN1C(=O)c1nc(Cl)cc2ccccc12 [Example D42, (2S)-1-((3-Chloro-1-isoquinolinyl)carbonyl)-N-(4-((4-((((2S)-1-((2S)-2-hydroxy-2-phenylacetyl)-2-pyrrolidinyl)carbonyl)amino)phenyl)ethynyl)phenyl)-2-pyrrolidinecarboxamide] |  | EC50 [2]: 17 nM |
| O=C(Nc1ccc(C#Cc2ccc(NC(=O)[C@@H]3CCCN3C(=O)[C@H]3CCCO3)cc2)cc1)[C@H]1CCCO1 [Example D25, 1-((2R)-Tetrahydro-2-furanylcarbonyl)-N-(4-((4-(((2R)-tetrahydro-2-furanylcarbonyl)amino)phenyl)ethynyl)phenyl)-L-prolinamide] | 1000 to 10000 nM |  |
| O=C(Nc1ccc(C#Cc2ccc(NC(=O)[C@@H]3CCCN3C(=O)Cc3ccccc3)cc2)cc1)[C@H]1CCCO1 [Example D17, 1-(Phenylacetyl)-N-(4-((4-(((2R)-tetrahydro-2-furanylcarbonyl)amino)phenyl)ethynyl)phenyl)-L-prolinamide] | 100 to 999 nM |  |
| CC(=O)N1CCC[C@H]1C(=O)Nc1ccc(C#Cc2ccc(NC(=O)[C@@H]3CCCCN3C(=O)OCc3ccccc3)cc2)cc1 [Example D11, Benzyl (2S)-2-((4-((4-((1-acetyl-L-prolyl)amino)phenyl)ethynyl)phenyl)carbamoyl)-1-piperidinecarboxylate] |  | EC50 [2]: 590 nM |

— US8383094B2, “Hepatitis C virus inhibitors” (Bristol-Myers Squibb Company, priority 2008, dated 2013)
